Data: US20080139386A1 (priority 2004, published 2008)
Like-named read-outs stand apart in the source and are kept apart here.

Tested on: Pyricularia oryzae
Type: in vivo
Conditions: rice seedlings cultivar Tai-Nong 67, protective, inoculated next day, assessed after six days

Structure (SMILES)	Efficacy in % of the untreated control (4 ppm active compound in the spray liquor) [%]	Efficacy in % of the untreated control (1 ppm active compound in the spray liquor) [%]	Efficacy in % of the untreated control (16 ppm active compound in the spray liquor) [%]
CC1CCN(c2c(-c3c(F)cc(F)cc3F)c(Cl)nc3ncnn23)CC1 [compound I, 5-chloro-7-(4-methylpiperidin-1-yl)-6-(2,4,6-trifluorophenyl)-[1,2,4]triazolo[1,5-a]pyrimidine]	31		
O=C(Nc1ccccc1)N(Cc1ccc(Cl)cc1)C1CCCC1 [compound II, 1-(4-chlorobenzyl)-1-cyclopentyl-3-phenylurea]		0	0
